Experimental data: ChEMBL document CHEMBL1201862, “PubChem BioAssay data set” (2004)
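A five-concentration, 48-hour dose response in 96-well plates underlies each endpoint, interpolated linearly between surrounding concentrations. GI50: concentration for 50% inhibition of growth.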 Calls of active or inactive are those of the source. Rule as the data show it: active = GI50 up to about 1.1 µM and inactive = higher.

How the values were obtained:
Test in all cases: inhibition of tumour cell growth, NCI panel, 48 h
UACC-62 = system: UACC-62
KM12 = system: KM12
LOX IMVI = system: LOX IMVI
SNB-75 = system: SNB-75
HT-29 = system: HT-29
SN12C = system: SN12C
NCI-H226 = system: NCI-H226
RXF 631 = system: RXF 631
SNB-19 = system: SNB-19
DLD-1 = system: DLD-1
MOLT-4 = system: MOLT-4
COLO 205 = system: COLO 205
SK-MEL-28 = system: SK-MEL-28
SW-620 = system: SW-620
IGROV-1 = system: IGROV-1
RPMI-8226 = system: RPMI-8226
DMS-273 = system: DMS-273
OVCAR-8 = system: OVCAR-8
M19-MEL = system: M19-MEL
SK-MEL-5 = system: SK-MEL-5
NCI-H460 = system: NCI-H460
HL-60 = system: HL-60
OVCAR-3 = system: OVCAR-3
HCT-15 = system: HCT-15
RXF 393 = system: RXF 393
M14 = system: M14
A549 = system: A549
SNB-78 = system: SNB-78
EKVX = system: EKVX
CCRF-CEM = system: CCRF-CEM
SF-539 = system: SF-539
SK-OV-3 = system: SK-OV-3
HOP-92 = system: HOP-92
TK-10 = system: TK-10
NCI-H23 = system: NCI-H23
LXFL 529 = system: LXFL 529
OVCAR-4 = system: OVCAR-4
NCI-H522 = system: NCI-H522
HCC 2998 = system: HCC 2998
K562 = system: K562
UACC-257 = system: UACC-257
U-251 = system: U-251
HOP-62 = system: HOP-62
KM-20L2 = system: KM-20L2
HCT-116 = system: HCT-116
HOP-18 = system: HOP-18
SK-MEL-2 = system: SK-MEL-2
XF498 = system: XF498
SF-295 = system: SF-295
SF-268 = system: SF-268
786-0 = system: 786-0
A498 = system: A498
SR = system: SR
Malme-3M = system: Malme-3M
DMS-114 = system: DMS-114
ACHN = system: ACHN
UO-31 = system: UO-31

Question: `CC(C)(C)N1C(C(=O)c2ccccc2)C1c1ccccc1` (stereo not drawn) was tested. Which GI50 (UACC-62) did it give?
Answer: The GI50 was > 100 µM (inactive).

Question: And the GI50 (KM12)?
Answer: The GI50 was > 100 µM (inactive).

Question: What about the GI50 (LOX IMVI) of the same molecule?
Answer: Its GI50 is > 100 µM (inactive).

Question: And the GI50 (SNB-75)?
Answer: The GI50 was > 100 µM (inactive).

Question: What about the GI50 (HT-29) of the same molecule?
Answer: Its GI50 is > 100 µM (inactive).

Question: What about the GI50 (SN12C) of the same molecule?
Answer: The GI50 was > 100 µM (inactive).

Question: And the GI50 (NCI-H226)?
Answer: Its GI50 is > 100 µM (inactive).

Question: And the GI50 (RXF 631)?
Answer: The GI50 was > 100 µM (inactive).

Question: And the GI50 (SNB-19)?
Answer: The GI50 was > 100 µM (inactive).

Question: And the GI50 (DLD-1)?
Answer: Its GI50 is > 100 µM (inactive).

Question: And the GI50 (MOLT-4)?
Answer: Its GI50 is > 100 µM (inactive).

Question: What about the GI50 (COLO 205) of the same molecule?
Answer: The GI50 was > 100 µM (inactive).

Question: What about the GI50 (SK-MEL-28) of the same molecule?
Answer: The GI50 was > 100 µM (inactive).

Question: And the GI50 (SW-620)?
Answer: Its GI50 is > 100 µM (inactive).

Question: And the GI50 (IGROV-1)?
Answer: Its GI50 is > 100 µM (inactive).

Question: And the GI50 (RPMI-8226)?
Answer: Its GI50 is > 100 µM (inactive).

Question: And the GI50 (DMS-273)?
Answer: The GI50 was > 100 µM (inactive).

Question: What about the GI50 (OVCAR-8) of the same molecule?
Answer: Its GI50 is > 100 µM (inactive).

Question: What about the GI50 (M19-MEL) of the same molecule?
Answer: Its GI50 is > 100 µM (inactive).

Question: And the GI50 (SK-MEL-5)?
Answer: The GI50 was > 100 µM (inactive).

Question: What about the GI50 (NCI-H460) of the same molecule?
Answer: Its GI50 is > 100 µM (inactive).

Question: What about the GI50 (HL-60) of the same molecule?
Answer: Its GI50 is > 100 µM (inactive).

Question: And the GI50 (OVCAR-3)?
Answer: Its GI50 is > 100 µM (inactive).

Question: And the GI50 (HCT-15)?
Answer: Its GI50 is > 100 µM.

Question: And the GI50 (RXF 393)?
Answer: The GI50 was > 100 µM (inactive).

Question: What about the GI50 (M14) of the same molecule?
Answer: The GI50 was > 100 µM (inactive).

Question: What about the GI50 (A549) of the same molecule?
Answer: Its GI50 is > 100 µM (inactive).

Question: What about the GI50 (SNB-78) of the same molecule?
Answer: Its GI50 is > 100 µM (inactive).

Question: And the GI50 (EKVX)?
Answer: Its GI50 is > 100 µM (inactive).

Question: And the GI50 (CCRF-CEM)?
Answer: Its GI50 is > 100 µM (inactive).

Question: And the GI50 (SF-539)?
Answer: Its GI50 is > 100 µM (inactive).

Question: What about the GI50 (SK-OV-3) of the same molecule?
Answer: Its GI50 is > 100 µM (inactive).

Question: And the GI50 (HOP-92)?
Answer: Its GI50 is > 100 µM (inactive).

Question: And the GI50 (TK-10)?
Answer: Its GI50 is > 100 µM (inactive).

Question: What about the GI50 (NCI-H23) of the same molecule?
Answer: Its GI50 is > 100 µM (inactive).

Question: What about the GI50 (LXFL 529) of the same molecule?
Answer: The GI50 was > 100 µM (inactive).

Question: And the GI50 (OVCAR-4)?
Answer: Its GI50 is > 100 µM (inactive).

Question: And the GI50 (NCI-H522)?
Answer: The GI50 was > 100 µM (inactive).

Question: And the GI50 (HCC 2998)?
Answer: Its GI50 is > 100 µM (inactive).

Question: And the GI50 (K562)?
Answer: Its GI50 is > 100 µM (inactive).

Question: And the GI50 (UACC-257)?
Answer: The GI50 was > 100 µM (inactive).

Question: What about the GI50 (U-251) of the same molecule?
Answer: The GI50 was > 100 µM (inactive).

Question: And the GI50 (HOP-62)?
Answer: The GI50 was > 100 µM (inactive).

Question: How did the GI50 (UACC-62) turn out when `CC12CC[C@H](O)C(C)(C)[C@H]1CC[C@](C)(O)C2COc1ccc2ccc(=O)oc2c1` (stereo partly drawn) was run?
Answer: The GI50 was 64.4 µM (inactive).

Question: And the GI50 (KM12)?
Answer: The GI50 was > 100 µM (inactive).

Question: And the GI50 (LOX IMVI)?
Answer: The GI50 was > 100 µM (inactive).

Question: What about the GI50 (SNB-75) of the same molecule?
Answer: The GI50 was 62.2 µM (inactive).

Question: What about the GI50 (HT-29) of the same molecule?
Answer: Its GI50 is > 100 µM (inactive).

Question: What about the GI50 (KM-20L2) of the same molecule?
Answer: The GI50 was > 100 µM (inactive).

Question: What about the GI50 (HCT-116) of the same molecule?
Answer: The GI50 was 50.9 µM (inactive).

Question: And the GI50 (SN12C)?
Answer: Its GI50 is > 100 µM (inactive).

Question: And the GI50 (NCI-H226)?
Answer: The GI50 was > 100 µM (inactive).

Question: What about the GI50 (HOP-18) of the same molecule?
Answer: The GI50 was > 100 µM (inactive).

Question: What about the GI50 (SK-MEL-2) of the same molecule?
Answer: The GI50 was > 100 µM (inactive).

Question: What about the GI50 (SNB-19) of the same molecule?
Answer: The GI50 was > 100 µM (inactive).

Question: And the GI50 (DLD-1)?
Answer: Its GI50 is > 100 µM (inactive).

Question: And the GI50 (MOLT-4)?
Answer: Its GI50 is 80.9 µM (inactive).

Question: What about the GI50 (COLO 205) of the same molecule?
Answer: The GI50 was > 100 µM (inactive).

Question: What about the GI50 (SK-MEL-28) of the same molecule?
Answer: The GI50 was > 100 µM (inactive).

Question: And the GI50 (XF498)?
Answer: The GI50 was > 100 µM (inactive).

Question: And the GI50 (SW-620)?
Answer: The GI50 was > 100 µM (inactive).

Question: What about the GI50 (IGROV-1) of the same molecule?
Answer: Its GI50 is > 100 µM (inactive).

Question: And the GI50 (SF-295)?
Answer: The GI50 was > 100 µM (inactive).

Question: What about the GI50 (SF-268) of the same molecule?
Answer: Its GI50 is > 100 µM (inactive).

Question: And the GI50 (786-0)?
Answer: The GI50 was > 100 µM (inactive).

Question: What about the GI50 (A498) of the same molecule?
Answer: The GI50 was > 100 µM (inactive).

Question: And the GI50 (RPMI-8226)?
Answer: Its GI50 is 99.1 µM (inactive).

Question: And the GI50 (DMS-273)?
Answer: The GI50 was > 100 µM (inactive).

Question: And the GI50 (SR)?
Answer: Its GI50 is > 100 µM (inactive).

Question: And the GI50 (OVCAR-8)?
Answer: Its GI50 is > 100 µM (inactive).

Question: And the GI50 (M19-MEL)?
Answer: The GI50 was > 100 µM (inactive).

Question: And the GI50 (NCI-H460)?
Answer: The GI50 was > 100 µM (inactive).

Question: And the GI50 (HL-60)?
Answer: The GI50 was 53.1 µM (inactive).

Question: And the GI50 (OVCAR-3)?
Answer: The GI50 was > 100 µM (inactive).

Question: And the GI50 (HCT-15)?
Answer: The GI50 was > 100 µM.

Question: And the GI50 (RXF 393)?
Answer: The GI50 was > 100 µM (inactive).

Question: What about the GI50 (M14) of the same molecule?
Answer: The GI50 was > 100 µM (inactive).

Question: What about the GI50 (Malme-3M) of the same molecule?
Answer: The GI50 was 73.6 µM (inactive).

Question: What about the GI50 (A549) of the same molecule?
Answer: Its GI50 is 81.7 µM (inactive).

Question: And the GI50 (SNB-78)?
Answer: The GI50 was 48.4 µM (inactive).

Question: And the GI50 (EKVX)?
Answer: Its GI50 is > 100 µM (inactive).

Question: What about the GI50 (DMS-114) of the same molecule?
Answer: Its GI50 is 85.3 µM (inactive).

Question: And the GI50 (CCRF-CEM)?
Answer: The GI50 was > 100 µM (inactive).

Question: What about the GI50 (SF-539) of the same molecule?
Answer: The GI50 was > 100 µM (inactive).

Question: What about the GI50 (SK-OV-3) of the same molecule?
Answer: The GI50 was > 100 µM (inactive).

Question: And the GI50 (HOP-92)?
Answer: Its GI50 is > 100 µM (inactive).

Question: And the GI50 (ACHN)?
Answer: The GI50 was > 100 µM (inactive).

Question: What about the GI50 (TK-10) of the same molecule?
Answer: Its GI50 is > 100 µM (inactive).

Question: And the GI50 (NCI-H23)?
Answer: The GI50 was > 100 µM (inactive).

Question: What about the GI50 (LXFL 529) of the same molecule?
Answer: Its GI50 is > 100 µM (inactive).

Question: And the GI50 (OVCAR-4)?
Answer: Its GI50 is > 100 µM (inactive).

Question: And the GI50 (UO-31)?
Answer: The GI50 was > 100 µM (inactive).

Question: And the GI50 (NCI-H522)?
Answer: Its GI50 is > 100 µM (inactive).

Question: What about the GI50 (HCC 2998) of the same molecule?
Answer: The GI50 was > 100 µM (inactive).

Question: And the GI50 (K562)?
Answer: Its GI50 is 71 µM (inactive).

Question: What about the GI50 (UACC-257) of the same molecule?
Answer: The GI50 was > 100 µM (inactive).

Question: What about the GI50 (U-251) of the same molecule?
Answer: The GI50 was > 100 µM (inactive).

Question: What about the GI50 (HOP-62) of the same molecule?
Answer: Its GI50 is > 100 µM (inactive).
